Assay results published in the kinase profiling compilation of Christmann-Franck et al. (2016).

Key:
Test in all cases: radiometric filter-binding kinase assay
[1] = molecular target: STK33 (human) (UniProt Q9BYT3)
[2] = molecular target: TEK (human) (UniProt Q02763)
[3] = tested on: TGFBR1 (human), P36897 [T204D]
[4] = molecular target: MAPKAPK3 (human) (UniProt Q16644)
[5] = molecular target: TSSK1B (human) (UniProt Q9BXA7)
[6] = molecular target: ULK2 (human) (UniProt Q8IYT8)
[7] = molecular target: MAP4K3 (human) (UniProt Q8IVH8)
[8] = molecular target: EIF2AK3 (human) (UniProt Q9NZJ5)
[9] = molecular target: STK24 (human) (UniProt Q9Y6E0)
[10] = molecular target: TTBK1 (human) (UniProt Q5TCY1)
[11] = molecular target: SIK3 (human) (UniProt Q9Y2K2)
[12] = molecular target: DDR2 (human) (UniProt Q16832)
[13] = molecular target: WNK1 (human) (UniProt Q9H4A3)
[14] = molecular target: IRAK1 (human) (UniProt P51617)
[15] = molecular target: ULK1 (human) (UniProt O75385)
[16] = tested on: PRKAA1 or PRKAA2 (rat); details: accession and sequence are those of the human protein
[17] = molecular target: CDK9 CCNT1 (human) (UniProt P50750+O60563)
[18] = molecular target: ZAP70 (human) (UniProt P43403)
[19] = molecular target: CSNK1G2 (human) (UniProt P78368)
[20] = molecular target: MAP4K5 (human) (UniProt Q9Y4K4)
[21] = tested on: OXSR1 (human), O95747 [T185E]
[22] = molecular target: TLK1 (human) (UniProt Q9UKI8)
[23] = molecular target: TESK1 (human) (UniProt Q15569)
[24] = molecular target: MAPK7 (human) (UniProt Q13164)
[25] = molecular target: PTK6 (human) (UniProt Q13882)
[26] = molecular target: PDGFRA (human) (UniProt P16234)
[27] = molecular target: PRKCG (human) (UniProt P05129)
[28] = molecular target: PRKAA1 PRKAB2 PRKAG1 (human) (UniProt O43741+Q13131+P54619)
[29] = molecular target: STK16 (human) (UniProt O75716)
[30] = molecular target: TTBK2 (human) (UniProt Q6IQ55)
[31] = molecular target: SIK2 (human) (UniProt Q9H0K1)
[32] = molecular target: ABL1 (human) (UniProt P00519)

Sequence of CDK9 CCNT1 (human) (O60563 whole entry, looked up): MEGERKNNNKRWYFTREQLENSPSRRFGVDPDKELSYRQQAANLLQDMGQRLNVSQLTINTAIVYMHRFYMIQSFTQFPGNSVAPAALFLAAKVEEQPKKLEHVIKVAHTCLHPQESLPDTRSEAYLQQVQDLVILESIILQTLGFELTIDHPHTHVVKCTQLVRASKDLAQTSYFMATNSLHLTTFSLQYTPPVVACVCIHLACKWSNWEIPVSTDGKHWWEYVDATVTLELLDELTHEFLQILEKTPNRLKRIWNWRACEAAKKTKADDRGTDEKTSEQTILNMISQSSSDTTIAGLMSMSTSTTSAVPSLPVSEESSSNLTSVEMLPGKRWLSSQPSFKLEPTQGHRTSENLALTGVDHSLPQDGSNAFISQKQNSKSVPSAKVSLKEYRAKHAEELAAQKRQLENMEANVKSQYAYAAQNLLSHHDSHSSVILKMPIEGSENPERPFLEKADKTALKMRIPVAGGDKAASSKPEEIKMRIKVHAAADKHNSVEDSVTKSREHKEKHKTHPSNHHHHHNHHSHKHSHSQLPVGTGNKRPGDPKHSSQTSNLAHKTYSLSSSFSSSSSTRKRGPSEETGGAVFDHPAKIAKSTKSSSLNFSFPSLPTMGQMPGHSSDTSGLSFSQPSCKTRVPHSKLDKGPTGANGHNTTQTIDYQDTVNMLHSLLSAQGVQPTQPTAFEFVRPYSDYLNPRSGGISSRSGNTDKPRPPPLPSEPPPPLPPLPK
Sequence of CDK9 CCNT1 (human) (P50750 whole entry, looked up): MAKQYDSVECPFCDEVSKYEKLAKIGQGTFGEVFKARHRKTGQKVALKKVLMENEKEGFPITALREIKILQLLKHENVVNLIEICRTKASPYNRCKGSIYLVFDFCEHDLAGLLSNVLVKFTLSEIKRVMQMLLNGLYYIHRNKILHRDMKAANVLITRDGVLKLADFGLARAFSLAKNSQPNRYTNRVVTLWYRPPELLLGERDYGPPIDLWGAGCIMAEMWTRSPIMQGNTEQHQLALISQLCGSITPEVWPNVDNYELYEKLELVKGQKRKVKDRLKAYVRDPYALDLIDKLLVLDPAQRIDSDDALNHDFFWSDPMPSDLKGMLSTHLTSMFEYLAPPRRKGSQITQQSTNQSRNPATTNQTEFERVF
Sequence of TLK1 (human) (Q9UKI8 whole entry, looked up): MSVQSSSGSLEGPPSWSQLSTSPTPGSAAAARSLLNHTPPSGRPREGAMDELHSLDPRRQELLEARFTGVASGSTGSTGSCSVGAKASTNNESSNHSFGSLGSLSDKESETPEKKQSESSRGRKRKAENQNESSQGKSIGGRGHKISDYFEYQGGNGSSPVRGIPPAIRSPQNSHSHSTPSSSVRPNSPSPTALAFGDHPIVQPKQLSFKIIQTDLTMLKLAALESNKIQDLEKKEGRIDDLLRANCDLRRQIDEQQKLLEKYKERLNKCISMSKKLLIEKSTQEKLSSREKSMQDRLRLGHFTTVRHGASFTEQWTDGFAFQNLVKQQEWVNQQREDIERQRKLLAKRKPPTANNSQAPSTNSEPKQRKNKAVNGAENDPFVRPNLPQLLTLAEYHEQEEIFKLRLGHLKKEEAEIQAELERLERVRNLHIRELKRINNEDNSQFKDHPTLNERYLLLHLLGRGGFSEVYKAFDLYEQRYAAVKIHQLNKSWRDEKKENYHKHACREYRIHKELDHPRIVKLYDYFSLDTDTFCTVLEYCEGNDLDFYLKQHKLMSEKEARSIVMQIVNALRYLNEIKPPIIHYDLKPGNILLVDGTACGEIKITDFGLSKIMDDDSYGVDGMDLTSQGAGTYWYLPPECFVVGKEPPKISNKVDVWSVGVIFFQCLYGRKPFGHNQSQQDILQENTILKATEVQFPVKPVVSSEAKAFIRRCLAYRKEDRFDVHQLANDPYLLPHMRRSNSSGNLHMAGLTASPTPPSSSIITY
Sequence of TESK1 (human) (Q15569 whole entry, looked up): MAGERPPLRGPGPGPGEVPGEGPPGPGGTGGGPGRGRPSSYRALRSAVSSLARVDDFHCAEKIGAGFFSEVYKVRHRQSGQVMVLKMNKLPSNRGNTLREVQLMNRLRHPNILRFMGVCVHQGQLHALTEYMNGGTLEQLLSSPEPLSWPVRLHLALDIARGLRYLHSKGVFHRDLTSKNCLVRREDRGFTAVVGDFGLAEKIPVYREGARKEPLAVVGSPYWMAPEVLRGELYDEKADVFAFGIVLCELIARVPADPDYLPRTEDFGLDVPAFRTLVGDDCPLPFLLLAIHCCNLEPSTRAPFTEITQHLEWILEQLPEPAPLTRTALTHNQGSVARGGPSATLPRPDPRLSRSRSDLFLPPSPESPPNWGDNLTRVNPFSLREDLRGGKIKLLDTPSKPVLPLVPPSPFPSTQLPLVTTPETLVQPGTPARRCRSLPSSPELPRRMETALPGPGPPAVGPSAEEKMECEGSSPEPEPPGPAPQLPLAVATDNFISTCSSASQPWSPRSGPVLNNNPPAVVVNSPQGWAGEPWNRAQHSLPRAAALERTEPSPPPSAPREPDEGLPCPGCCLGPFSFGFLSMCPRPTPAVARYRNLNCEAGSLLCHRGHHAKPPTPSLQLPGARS
Sequence of TSSK1B (human) (Q9BXA7 whole entry, looked up): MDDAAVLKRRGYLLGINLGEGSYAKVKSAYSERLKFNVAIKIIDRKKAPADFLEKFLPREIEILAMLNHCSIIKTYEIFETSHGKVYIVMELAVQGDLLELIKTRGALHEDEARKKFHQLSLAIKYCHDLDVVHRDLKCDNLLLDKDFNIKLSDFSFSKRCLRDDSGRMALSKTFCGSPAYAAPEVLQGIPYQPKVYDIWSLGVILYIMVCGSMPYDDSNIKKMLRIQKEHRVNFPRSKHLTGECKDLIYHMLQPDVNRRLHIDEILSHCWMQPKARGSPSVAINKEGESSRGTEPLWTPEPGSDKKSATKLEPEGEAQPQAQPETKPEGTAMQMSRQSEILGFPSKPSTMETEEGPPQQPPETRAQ
Sequence of STK16 (human) (O75716 whole entry, looked up): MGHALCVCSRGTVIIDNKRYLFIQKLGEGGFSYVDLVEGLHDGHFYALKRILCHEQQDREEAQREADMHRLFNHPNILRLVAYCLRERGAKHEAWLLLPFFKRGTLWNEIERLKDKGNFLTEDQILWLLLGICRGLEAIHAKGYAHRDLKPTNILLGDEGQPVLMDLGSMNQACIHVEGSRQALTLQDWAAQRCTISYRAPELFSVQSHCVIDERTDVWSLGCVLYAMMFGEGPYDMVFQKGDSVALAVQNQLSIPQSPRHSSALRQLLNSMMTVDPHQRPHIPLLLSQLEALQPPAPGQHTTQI
Sequence of MAPK7 (human) (Q13164 whole entry, looked up): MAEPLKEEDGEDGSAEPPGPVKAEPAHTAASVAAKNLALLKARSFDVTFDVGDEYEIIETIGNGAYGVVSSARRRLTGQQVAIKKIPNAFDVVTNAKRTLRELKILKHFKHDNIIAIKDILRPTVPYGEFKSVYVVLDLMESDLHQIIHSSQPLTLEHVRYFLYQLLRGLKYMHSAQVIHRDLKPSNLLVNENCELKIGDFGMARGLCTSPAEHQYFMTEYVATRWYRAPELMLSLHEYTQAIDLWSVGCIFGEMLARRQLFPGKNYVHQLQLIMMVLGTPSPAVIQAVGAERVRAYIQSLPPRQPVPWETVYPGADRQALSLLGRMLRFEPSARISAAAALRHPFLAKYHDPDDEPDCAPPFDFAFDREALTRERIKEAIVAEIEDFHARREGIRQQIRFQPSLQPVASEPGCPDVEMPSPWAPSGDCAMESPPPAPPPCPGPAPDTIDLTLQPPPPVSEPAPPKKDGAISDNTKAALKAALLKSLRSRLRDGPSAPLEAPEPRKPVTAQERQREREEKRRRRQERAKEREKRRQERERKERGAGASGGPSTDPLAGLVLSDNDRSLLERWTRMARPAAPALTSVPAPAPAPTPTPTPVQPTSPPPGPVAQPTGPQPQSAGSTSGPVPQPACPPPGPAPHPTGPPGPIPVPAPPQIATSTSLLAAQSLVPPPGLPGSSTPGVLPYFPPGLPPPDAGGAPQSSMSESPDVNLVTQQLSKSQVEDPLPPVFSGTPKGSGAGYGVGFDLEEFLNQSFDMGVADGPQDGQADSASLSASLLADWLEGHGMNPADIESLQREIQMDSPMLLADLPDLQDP

For `COC(=O)/C=C/C(=O)OC`, the residual activity ([1]; compound 10.0 µM) was 93%, the residual activity ([1]; compound 100.0 µM) was 99% and the residual activity ([1]; compound 1000.0 µM) was 102%. For the same molecule, the residual activity ([2]; compound 10.0 µM) was 92%, the residual activity ([2]; compound 100.0 µM) was 100% and the residual activity ([2]; compound 1000.0 µM) was 99%. The residual activity ([3]; compound 10.0 µM) was 93%, the residual activity ([3]; compound 1000.0 µM) was 95% and the residual activity ([4]; compound 10.0 µM) was 87%. The residual activity ([4]; compound 100.0 µM) was 97%, the residual activity ([5]; compound 10.0 µM) was 73% and the residual activity ([5]; compound 100.0 µM) was 85%. It also gave a residual activity ([5]; compound 1000.0 µM) of 80%, a residual activity ([6]; compound 10.0 µM) of 106% and a residual activity ([6]; compound 100.0 µM) of 109%. The residual activity ([6]; compound 1000.0 µM) was 109%, the residual activity ([7]; compound 10.0 µM) was 92% and the residual activity ([7]; compound 100.0 µM) was 81%. For the same molecule, the residual activity ([7]; compound 1000.0 µM) was 85%, the residual activity ([8]; compound 10.0 µM) was 95% and the residual activity ([8]; compound 100.0 µM) was 107%. The residual activity ([9]; compound 100.0 µM) was 104%, the residual activity ([9]; compound 1000.0 µM) was 112% and the residual activity ([10]; compound 10.0 µM) was 88%. For the same molecule, the residual activity ([10]; compound 100.0 µM) was 101%, the residual activity ([11]; compound 10.0 µM) was 98% and the residual activity ([11]; compound 1000.0 µM) was 110%. The residual activity ([12]; compound 10.0 µM) was 103%, the residual activity ([12]; compound 100.0 µM) was 100% and the residual activity ([13]; compound 10.0 µM) was 109%. For the same molecule, the residual activity ([13]; compound 100.0 µM) was 104%, the residual activity ([13]; compound 1000.0 µM) was 114% and the residual activity ([14]; compound 10.0 µM) was 101%. It also gave a residual activity ([14]; compound 100.0 µM) of 100%, a residual activity ([14]; compound 1000.0 µM) of 97% and a residual activity ([15]; compound 10.0 µM) of 97%. It also gave a residual activity ([15]; compound 100.0 µM) of 99%, a residual activity ([15]; compound 1000.0 µM) of 103% and a residual activity ([16]; compound 10.0 µM) of 106%. The residual activity ([16]; compound 100.0 µM) was 104%, the residual activity ([16]; compound 1000.0 µM) was 109% and the residual activity ([17]; compound 10.0 µM) was 91%. It also gave a residual activity ([17]; compound 100.0 µM) of 98%, a residual activity ([17]; compound 1000.0 µM) of 103% and a residual activity ([18]; compound 10.0 µM) of 116%. The residual activity ([18]; compound 100.0 µM) was 116%, the residual activity ([18]; compound 1000.0 µM) was 112% and the residual activity ([19]; compound 10.0 µM) was 92%. For the same molecule, the residual activity ([19]; compound 100.0 µM) was 101%, the residual activity ([19]; compound 1000.0 µM) was 101% and the residual activity ([20]; compound 10.0 µM) was 91%. For the same molecule, the residual activity ([20]; compound 100.0 µM) was 87%, the residual activity ([21]; compound 10.0 µM) was 96% and the residual activity ([21]; compound 100.0 µM) was 107%. For the same molecule, the residual activity ([21]; compound 1000.0 µM) was 116%, the residual activity ([22]; compound 10.0 µM) was 103% and the residual activity ([22]; compound 100.0 µM) was 117%. The residual activity ([22]; compound 1000.0 µM) was 110%, the residual activity ([23]; compound 10.0 µM) was 84% and the residual activity ([23]; compound 100.0 µM) was 89%. It also gave a residual activity ([23]; compound 1000.0 µM) of 109%, a residual activity ([24]; compound 10.0 µM) of 88% and a residual activity ([24]; compound 100.0 µM) of 94%. It also gave a residual activity ([24]; compound 1000.0 µM) of 97%, a residual activity ([25]; compound 10.0 µM) of 102% and a residual activity ([25]; compound 100.0 µM) of 112%. The residual activity ([25]; compound 1000.0 µM) was 110%, the residual activity ([26]; compound 10.0 µM) was 101% and the residual activity ([26]; compound 100.0 µM) was 103%. It also gave a residual activity ([26]; compound 1000.0 µM) of 104%, a residual activity ([27]; compound 10.0 µM) of 106% and a residual activity ([27]; compound 100.0 µM) of 113%. For the same molecule, the residual activity ([27]; compound 1000.0 µM) was 114%, the residual activity ([28]; compound 10.0 µM) was 87% and the residual activity ([28]; compound 100.0 µM) was 95%. For the same molecule, the residual activity ([28]; compound 1000.0 µM) was 102%, the residual activity ([29]; compound 10.0 µM) was 114% and the residual activity ([29]; compound 100.0 µM) was 116%. The residual activity ([29]; compound 1000.0 µM) was 109%, the residual activity ([30]; compound 10.0 µM) was 96% and the residual activity ([30]; compound 100.0 µM) was 99%. The residual activity ([30]; compound 1000.0 µM) was 96%, the residual activity ([31]; compound 10.0 µM) was 82% and the residual activity ([31]; compound 100.0 µM) was 94%. For the same molecule, the residual activity ([31]; compound 1000.0 µM) was 103%, the residual activity ([32]; compound 10.0 µM) was 98% and the residual activity ([32]; compound 100.0 µM) was 105%. It also gave a residual activity ([32]; compound 1000.0 µM) of 95%.
